≈ marks a conversion by molar mass, not a printed value. Where a SMILES comes first, the peptide text is derived from it. [ ]: non-standard residue; d: D form. Nleu = CC(C)CNCC(=O)O; Nlys = NCCCCNCC(=O)O
Experiments:
[1] = system: human red blood cells (hRBC); assay: Minimum hemolytic concentration (MHC); type: cell-based
Source text: We also measured minimal hemolysis concentrations (MHC) on human red blood cells by serial 2-fold dilution as an indication of toxicity against eukaryotic cells (Table 1).

P. aeruginosa PAO1 = conditions: PAO1, 4 h
Procedure: (§1) Antimicrobial activity was assayed for all the peptide–peptoids against P. aeruginosa PAO1, K. pneumoniae NCTC418, E. coli W3110, A. baumannii ATCC 19606, methicillin-resistant S. aureus COL (MRSA), and for selected peptides on P. aeruginosa PA14 and the polymyxin-B-resistant derivatives PA14 4.13, PA14 4.18, PA14 2P4, as well as the clinical isolates ZEM-1A and ZEM9A, K. pneumoniae OXA-48, S. aureus Newman, Enterobacter cloacae, Stenotrophomonas maltophilia, Burkholderia cenocepacia, and Staphylococus epidermidis. To determine the Minimal Inhibitory Concentration (MIC), the Broth Microdilution method was used.[72] A colony of bacteria was picked and grown in LB medium overnight at 37 °C.
(§2) To each well was finally added 4 μL of the diluted bacterial suspension (see above), corresponding to approximately 5 × 10^5 CFU. For each test, two columns of the plate were kept for sterility control (medium only), growth control (medium with bacterial inoculum, no compound). The positive control, Polymyxin B (starting with a concentration of 16 μg/mL) in MH medium with bacterial inocula, was introduced in the two lines of the plate. The plates were incubated at 37 °C for ca. 18 h under static conditions. Next, 15 μL of 3-(4,5-dimethylthiazol-2-yl)-2,5-diphenyltetrazolium bromide (MTT)[73] (1 mg/mL in sterilized MilliQ deionized water) were added to each well, and the plates were incubated for 20–30 min at room temperature. The minimal inhibitory concentration (MIC) was defined as the lowest concentration of the compound that inhibits the visible growth of the tested bacteria (yellow) with the unaided eye.

S. aureus COL (MRSA) = conditions: COL
Procedure: as §1, §2

K. pneumoniae NCTC418 = conditions: NCTC418, 4 h
Procedure: as §1, §2

PA14 4.13 (phoQ) = conditions: […] MH at pH 8.5; for MIC P. aeruginosa PA14 4.13, […] MH at pH 8.5: CSV
Procedure: as §1, §2

PA14 2P4 (pmrB) = conditions: CSV; […] MH at pH 8.5
Procedure: as §1, §2

E. coli W3110 = conditions: for MIC E. coli W3110, […] MH at pH 7.4 / MIC E. coli W3110, […] MH at pH 8.5 / MIC E. coli W3110, full MH at pH 7.4 / MIC E. coli W3110, full MH at pH 8.5: CSV; for MIC E. coli W3110 […]: diluted MH ([…] MH, pH 8.5) per Table 1 footnote b, 16–20 h at 37 °C; for MIC E. coli W3110 Full: full MH, pH 7.4, 16–20 h at 37 °C
Procedure: as §1, §2

A. baumannii ATCC19606 = conditions: for MIC A. baumannii ATCC19606, full MH at pH 7.4 / MIC A. baumannii ATCC19606, full MH at pH 8.5: ATCC19606, 4 h
Procedure: as §1, §2

PA14 4.18 (pmrB) = conditions: CSV; […] MH at pH 8.5
Procedure: as §1, §2

SMILES	Hemolysis [1]	MHC [1] [µg/mL]	MIC P. aeruginosa PAO1, full MH at pH 7.4 (P. aeruginosa PAO1) [ug/mL]	MIC P. aeruginosa PAO1, full MH at pH 8.5 (P. aeruginosa PAO1) [ug/mL]	MIC S. aureus COL (MRSA), full MH at pH 7.4 (S. aureus COL (MRSA); 4 h, pH 7.4) [ug/mL]	MIC S. aureus COL (MRSA), full MH at pH 8.5 (S. aureus COL (MRSA); 4 h, pH 8.5) [ug/mL]	MIC K. pneumoniae NCTC418, full MH at pH 7.4 (K. pneumoniae NCTC418) [ug/mL]	MIC K. pneumoniae NCTC418, full MH at pH 8.5 (K. pneumoniae NCTC418) [ug/mL]	MIC P. aeruginosa PA14 4.13, […] MH at pH 8.5 (PA14 4.13 (phoQ)) [ug/mL]	MIC P. aeruginosa PA14 2P4, […] MH at pH 8.5 (PA14 2P4 (pmrB)) [ug/mL]	MIC E. coli W3110, […] MH at pH 7.4 (E. coli W3110) [ug/mL]	MIC E. coli W3110, […] MH at pH 8.5 (E. coli W3110) [ug/mL]	MIC E. coli W3110, full MH at pH 7.4 (E. coli W3110) [ug/mL]	MIC E. coli W3110, full MH at pH 8.5 (E. coli W3110) [ug/mL]	MIC E. coli W3110 […] (E. coli W3110) [µg/mL]	MIC E. coli W3110 Full (E. coli W3110) [µg/mL]	MIC A. baumannii ATCC19606, full MH at pH 7.4 (A. baumannii ATCC19606) [ug/mL]	MIC A. baumannii ATCC19606, full MH at pH 8.5 (A. baumannii ATCC19606) [ug/mL]	MIC P. aeruginosa PA14 4.18, […] MH at pH 8.5 (PA14 4.18 (pmrB)) [ug/mL]	further results
CC(C)C[C@H](NC(=O)[C@H](CC(C)C)NC(=O)[C@H](CC(C)C)NC(=O)CN(CCCCN)C(=O)[C@H](CC(C)C)NC(=O)[C@H](CC(C)C)NC(=O)CN(CCCCN)C(=O)[C@H](CC(C)C)NC(=O)[C@H](CC(C)C)NC(=O)CN(CCCCN)C(=O)CNCCCCN)C(N)=O [EB7, kkLLkLLkLLL] (H-[Nlys][Nlys]LL[Nlys]LL[Nlys]LLL-NH2)	none of them showed any measurable hemolysis	>2000	32	8	>32	6	>32	4	4	16	4	1	16	4	4 (≈ 3.03 µM)	16 (≈ 12.1 µM)	>32	4	8	MIC S. aureus COL (MRSA) Full MH 8.5 (S. aureus COL (MRSA); 4 h, pH 8.5): 4 to 8 µg/mL; MIC S. aureus COL (MRSA) Full (S. aureus COL (MRSA); pH 7.4): >32 µg/mL; MIC A. baumannii ATCC19606 Full (A. baumannii ATCC19606; ATCC19606, pH 7.4): >32 µg/mL
CC(C)CN(CC(N)=O)C(=O)CN(CC(C)C)C(=O)CN(CC(C)C)C(=O)[C@H](CCCCN)NC(=O)CN(CC(C)C)C(=O)CN(CC(C)C)C(=O)[C@H](CCCCN)NC(=O)CN(CC(C)C)C(=O)CN(CC(C)C)C(=O)[C@H](CCCCN)NC(=O)[C@@H](N)CCCCN [EB8, KKllKllKlll] (H-KK[Nleu][Nleu]K[Nleu][Nleu]K[Nleu][Nleu][Nleu]-NH2)	none of them showed any measurable hemolysis	>2000	>32	16	>32	16	>32	16	24	32	8	3	>32	8	8 (≈ 6.05 µM)	>32	>32	16	32	MIC P. aeruginosa PA14 4.13 (PA14 4.13 (phoQ); Table S3): 16 to 32 µg/mL; MIC E. coli W3110 […] 8.5 (E. coli W3110; Table S2, […] MH, pH 8.5): 2 to 4 µg/mL

Source: publication PMC10714400, “Antimicrobial Peptide–Peptoid Hybrids with and without Membrane Disruption” (ACS Infectious Diseases, 2023)
